Read-outs that look alike come from different tables or passages of the source.

The target in series [1] is deazaflavin (F420) dependent nitroreductase (Ddn) (Mycobacterium tuberculosis, UniProt P9WP15). The series can be described thus: activation of nitroimidazoles to NO• by Ddn. Format: biochemical. The settings on record: for Ddn mediated production of ^15NO•: FIG. 4; for activation to NO• by Ddn: FIG. 2.
For series [2] the following is noted: oral pyrazinamide, metabolite pyrazinoic acid formed by host hepatic microsomal deamidase, cited from earlier work.

deazaflavin (F420) dependent nitroreductase (Ddn), sequence (P9WP15 whole entry): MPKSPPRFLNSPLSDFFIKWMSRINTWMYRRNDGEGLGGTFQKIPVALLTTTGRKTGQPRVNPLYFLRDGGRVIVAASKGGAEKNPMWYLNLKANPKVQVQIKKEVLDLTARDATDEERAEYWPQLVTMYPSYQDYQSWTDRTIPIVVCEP

With `O=[15N+]([O-])c1cn2c(n1)OC[C@@H](OCc1ccc(OC(F)(F)F)cc1)C2` [^15N-nitro-PA824], the “Ddn mediated production of ^15NO•” value in series [1] is recorded as “Ddn mediated production of ^15NO•”.
With `CC1(COc2ccc(N3CCC(Oc4ccc(OC(F)(F)F)cc4)CC3)cc2)Cn2cc([15N+](=O)[O-])nc2O1` (stereo not drawn) [^15N-nitro-OPC67683], the “Ddn mediated production of ^15NO•” value in series [1] is “Ddn mediated production of ^15NO•”.
With `NC(=O)c1cnccn1` [PZA, pyrazinamide], the figures for the “time of peak POA (metabolite) levels after oral dosage” value in series [2] and in series [2] (listed as pyrazinamide) were approximately 6 h and “around six”, respectively.
`C[C@]1(COc2ccc(N3CCC(Oc4ccc(OC(F)(F)F)cc4)CC3)cc2)Cn2cc([N+](=O)[O-])nc2O1` [OPC67683]: in series [1], the “activation to NO• by Ddn” value was “activation of PA824 and OPC67683 to NO• by Ddn”.
Turning to `O=[N+]([O-])c1cn2c(n1)OC[C@@H](OCc1ccc(OC(F)(F)F)cc1)C2` [PA824], the “activation to NO• by Ddn” value in series [1] was “activation of PA824 and OPC67683 to NO• by Ddn”.
